Results taken from patent US20070049564A1 (Wyeth, priority 2005, published 2007).
In brackets after ≈: the same amount, converted by molar mass. Where two headings read alike, the source gives them in different places.

How the values were obtained:
Assay in all cases: MIC, broth microdilution
[1] = test system: S. epidermidis GC 4935; details: Staphylococcus epidermidis
[2] = test system: S. aureus GC 4536; details: Staphylococcus aureus
[3] = test system: S. aureus GC 1131; details: Staphylococcus aureus
[4] = test system: E. coli GC 2272; details: Escherichia coli
Experimental: Antimicrobial susceptibility testing. The in vitro activities of the antibiotics are determined by the broth microdilution method as recommended by the National Committee for Clinical Laboratory Standards (NCCLS) (1). Mueller-Hinton II broth (MHBII)(BBL Cockeysville, Md.) is the medium employed in the testing procedures. Microtiter plates containing serial dilutions of each antimicrobial agent are inoculated with each organism to yield the appropriate density (10^5 CFU/ml) in a 100 μl final volume. The plates are incubated for 18-22 hours at 35° C. in ambient air.
Representative compounds were first incubated in mouse serum for an hour prior to the in vitro testing against a panel of selected gram-positive and gram-negative bacteria strains. All compounds were also pre-incubated in water for an hour prior to testing as control. Representative compounds of Formula I were incubated in human serum prior to MIC determination.

[5] = test system: S. pneumoniae+ GC 4465; details: Streptococcus pneumoniae
[6] = test system: E. faecalis GC 2242; details: Enterococcus faecalis
[7] = test system: E. coli GC 4559; details: Escherichia coli
[8] = test system: S. pneumoniae* GC 4465; details: Streptococcus pneumoniae
[9] = test system: S. aureus GC 6466; details: Staphylococcus aureus
[10] = test system: E. coli GC 2232; details: Escherichia coli
[11] = test system: S. aureus GC 2216; details: Staphylococcus aureus
[12] = test system: E. coli GC 2234; details: Escherichia coli
[13] = test system: E. faecalis GC 2267; details: Enterococcus faecalis
[14] = test system: P. aeruginosa GC 2214; details: Pseudomonas aeruginosa
[15] = test system: E. coli GC 2203; details: Escherichia coli
[16] = test system: E. coli GC 2231; details: Escherichia coli
[17] = test system: E. coli GC 6465; details: Escherichia coli
[18] = test system: E. coli GC 4560; details: Escherichia coli
[19] = test system: S. aureus GC 6467; details: Staphylococcus aureus
[20] = read-out: MINIMAL INHIBITORY CONCENTRATION MIC, Human Serum
[21] = read-out: MINIMAL INHIBITORY CONCENTRATION MIC, Mouse Serum
[22] = read-out: MINIMAL INHIBITORY CONCENTRATION MIC, Water

In the case of `CC(C)COC(=O)N(CC(=O)Nc1cc(N(C)C)c2c(c1O)C(=O)C1=C(O)[C@]3(O)C(=O)C(C(N)=O)=C(O)[C@@H](N(C)C)[C@@H]3C[C@@H]1C2)C(C)(C)C` [Example 59, isobutyl 2-{[(5aR,6aS,7S,10aS)-9-(aminocarbonyl)-4,7-bis(dimethylamino)-1,8,10a,11-tetrahydroxy-10,12-dioxo-5,5a,6,6a,7,10,10a,12-octahydrotetracen-2-yl]amino}-2-oxoethyl(tert-butyl)carbamate], the MIC ([1]; GC4935, read-out: MINIMAL INHIBITORY CONCENTRATION MIC, Human Serum) is reported as 4 mg/L (≈ 5.83 µM), the MIC ([1]; GC4935, read-out: MINIMAL INHIBITORY CONCENTRATION MIC, Mouse Serum) is reported as 4 mg/L (≈ 5.83 µM) and the MIC ([1]; GC4935, read-out: MINIMAL INHIBITORY CONCENTRATION MIC, Water) is reported as 4 mg/L (≈ 5.83 µM). The MIC ([2]; GC4536, read-out: MINIMAL INHIBITORY CONCENTRATION MIC, Human Serum) was 4 mg/L (≈ 5.83 µM), the MIC ([2]; GC4536, read-out: MINIMAL INHIBITORY CONCENTRATION MIC, Mouse Serum) was 4 mg/L (≈ 5.83 µM) and the MIC ([2]; GC4536, read-out: MINIMAL INHIBITORY CONCENTRATION MIC, Water) was 4 mg/L (≈ 5.83 µM). The MIC ([3]; GC1131, read-out: MINIMAL INHIBITORY CONCENTRATION MIC, Human Serum) was 4 mg/L (≈ 5.83 µM), the MIC ([3]; GC1131, read-out: MINIMAL INHIBITORY CONCENTRATION MIC, Mouse Serum) was 4 mg/L (≈ 5.83 µM) and the MIC ([3]; GC1131, read-out: MINIMAL INHIBITORY CONCENTRATION MIC, Water) was 4 mg/L (≈ 5.83 µM). The MIC ([4]; GC2272, read-out: MINIMAL INHIBITORY CONCENTRATION MIC, Human Serum) was > 64 mg/L, the MIC ([4]; GC2272, read-out: MINIMAL INHIBITORY CONCENTRATION MIC, Mouse Serum) was 64 mg/L (≈ 93.3 µM) and the MIC ([4]; GC2272, read-out: MINIMAL INHIBITORY CONCENTRATION MIC, Water) was > 64 mg/L. It also gave an MIC [5, 20] of 8 mg/L (≈ 11.7 µM), an MIC [5, 21] of 4 mg/L (≈ 5.83 µM) and an MIC [5, 22] of 8 mg/L (≈ 11.7 µM). The MIC ([6]; GC2242, read-out: MINIMAL INHIBITORY CONCENTRATION MIC, Human Serum) was 4 mg/L (≈ 5.83 µM), the MIC ([6]; GC2242, read-out: MINIMAL INHIBITORY CONCENTRATION MIC, Mouse Serum) was 2 mg/L (≈ 2.92 µM) and the MIC ([6]; GC2242, read-out: MINIMAL INHIBITORY CONCENTRATION MIC, Water) was 4 mg/L (≈ 5.83 µM). The MIC ([7]; GC4559, read-out: MINIMAL INHIBITORY CONCENTRATION MIC, Human Serum) was > 64 mg/L, the MIC ([7]; GC4559, read-out: MINIMAL INHIBITORY CONCENTRATION MIC, Mouse Serum) was 64 mg/L (≈ 93.3 µM) and the MIC ([7]; GC4559, read-out: MINIMAL INHIBITORY CONCENTRATION MIC, Water) was > 64 mg/L. It also gave an MIC [8, 20] of 4 mg/L (≈ 5.83 µM), an MIC [8, 21] of 4 mg/L (≈ 5.83 µM) and an MIC [8, 22] of 4 mg/L (≈ 5.83 µM). It also gave an MIC ([9]; GC6466, read-out: MINIMAL INHIBITORY CONCENTRATION MIC, Human Serum) of 4 mg/L (≈ 5.83 µM), an MIC ([9]; GC6466, read-out: MINIMAL INHIBITORY CONCENTRATION MIC, Mouse Serum) of 4 mg/L (≈ 5.83 µM) and an MIC ([9]; GC6466, read-out: MINIMAL INHIBITORY CONCENTRATION MIC, Water) of 8 mg/L (≈ 11.7 µM). The MIC ([10]; GC2232, read-out: MINIMAL INHIBITORY CONCENTRATION MIC, Human Serum) was > 64 mg/L, the MIC ([10]; GC2232, read-out: MINIMAL INHIBITORY CONCENTRATION MIC, Mouse Serum) was > 64 mg/L and the MIC ([10]; GC2232, read-out: MINIMAL INHIBITORY CONCENTRATION MIC, Water) was > 64 mg/L. The MIC ([11]; GC2216, read-out: MINIMAL INHIBITORY CONCENTRATION MIC, Human Serum) was 4 mg/L (≈ 5.83 µM), the MIC ([11]; GC2216, read-out: MINIMAL INHIBITORY CONCENTRATION MIC, Mouse Serum) was 4 mg/L (≈ 5.83 µM) and the MIC ([11]; GC2216, read-out: MINIMAL INHIBITORY CONCENTRATION MIC, Water) was 4 mg/L (≈ 5.83 µM). For the same molecule, the MIC ([12]; GC2234, read-out: MINIMAL INHIBITORY CONCENTRATION MIC, Human Serum) was > 64 mg/L, the MIC ([12]; GC2234, read-out: MINIMAL INHIBITORY CONCENTRATION MIC, Mouse Serum) was > 64 mg/L and the MIC ([12]; GC2234, read-out: MINIMAL INHIBITORY CONCENTRATION MIC, Water) was > 64 mg/L. It also gave an MIC ([13]; GC2267, read-out: MINIMAL INHIBITORY CONCENTRATION MIC, Human Serum) of 4 mg/L (≈ 5.83 µM), an MIC ([13]; GC2267, read-out: MINIMAL INHIBITORY CONCENTRATION MIC, Mouse Serum) of 4 mg/L (≈ 5.83 µM) and an MIC ([13]; GC2267, read-out: MINIMAL INHIBITORY CONCENTRATION MIC, Water) of 4 mg/L (≈ 5.83 µM). For the same molecule, the MIC ([14]; GC2214, read-out: MINIMAL INHIBITORY CONCENTRATION MIC, Human Serum) was > 64 mg/L, the MIC ([14]; GC2214, read-out: MINIMAL INHIBITORY CONCENTRATION MIC, Mouse Serum) was > 64 mg/L and the MIC ([14]; GC2214, read-out: MINIMAL INHIBITORY CONCENTRATION MIC, Water) was > 64 mg/L. For the same molecule, the MIC ([15]; GC2203, read-out: MINIMAL INHIBITORY CONCENTRATION MIC, Human Serum) was > 64 mg/L, the MIC ([15]; GC2203, read-out: MINIMAL INHIBITORY CONCENTRATION MIC, Mouse Serum) was > 64 mg/L and the MIC ([15]; GC2203, read-out: MINIMAL INHIBITORY CONCENTRATION MIC, Water) was > 64 mg/L. For the same molecule, the MIC ([16]; GC2231, read-out: MINIMAL INHIBITORY CONCENTRATION MIC, Human Serum) was > 64 mg/L, the MIC ([16]; GC2231, read-out: MINIMAL INHIBITORY CONCENTRATION MIC, Mouse Serum) was > 64 mg/L and the MIC ([16]; GC2231, read-out: MINIMAL INHIBITORY CONCENTRATION MIC, Water) was > 64 mg/L. For the same molecule, the MIC ([17]; GC6465, read-out: MINIMAL INHIBITORY CONCENTRATION MIC, Human Serum) was > 64 mg/L, the MIC ([17]; GC6465, read-out: MINIMAL INHIBITORY CONCENTRATION MIC, Mouse Serum) was 32 mg/L (≈ 46.7 µM) and the MIC ([17]; GC6465, read-out: MINIMAL INHIBITORY CONCENTRATION MIC, Water) was > 64 mg/L. The MIC ([18]; GC4560, read-out: MINIMAL INHIBITORY CONCENTRATION MIC, Human Serum) was 4 mg/L (≈ 5.83 µM), the MIC ([18]; GC4560, read-out: MINIMAL INHIBITORY CONCENTRATION MIC, Mouse Serum) was 4 mg/L (≈ 5.83 µM) and the MIC ([18]; GC4560, read-out: MINIMAL INHIBITORY CONCENTRATION MIC, Water) was 4 mg/L (≈ 5.83 µM). For the same molecule, the MIC ([19]; GC6467, read-out: MINIMAL INHIBITORY CONCENTRATION MIC, Human Serum) was 4 mg/L (≈ 5.83 µM), the MIC ([19]; GC6467, read-out: MINIMAL INHIBITORY CONCENTRATION MIC, Mouse Serum) was 4 mg/L (≈ 5.83 µM) and the MIC ([19]; GC6467, read-out: MINIMAL INHIBITORY CONCENTRATION MIC, Water) was 4 mg/L (≈ 5.83 µM).
